Data reported in paper PMC7284870, “Antimicrobial Peptides from Rat-Tailed Maggots of the Drone Fly Eristalis tenax Show Potent Activity against Multidrug-Resistant Gram-Negative Bacteria” (Microorganisms, 2020).
Values after ≈ are worked out from the molar mass of the structure shown.

Legend:
E. coli ATCC25922 = assay: Checkerboard assay EtDip with colistin; type: cell-based, Escherichia coli; conditions: CAMB, + 150 mM NaCl, + 1.25 mM CaCl2; FICindex ≤0.5 = synergy
Experimental: (§1) The interactions between pairs of compounds were analyzed using checkerboard assays in a 384-well microtiter plate with an assay volume of 20 µL. Immediately before the test runs, the bacterial cultures were diluted in CAMB to a density of 5 × 10^5 cells/mL. The two compounds for combinatorial testing were arrayed as 10-fold concentrated serial dilutions with respect to the final concentration, vertically for one compound and horizontally for the other, in the same 384-well microplate. Subsequently, we transferred 2-µL aliquots to new 384-well microtiter plates, and growth inhibition in each well was determined, as described for the MIC values above. Fractional inhibitory concentration (FIC) and FICindex values for each combination were calculated using the following formulae, where a
(§2) FICindex ≤0.5 indicates synergy and a FICindex >4 indicates antagonism.
(§3) FIC for compound A = MIC of compound A in combination/MIC of compound A
(§4) FIC for compound B = MIC of compound B in combination/MIC of compound B

P. aeruginosa ATCC 27853 = assay: Checkerboard assay EtDip with colistin; type: cell-based, Pseudomonas aeruginosa; conditions: CAMB and + 150 mM NaCl; not in the presence of CaCl2
Experimental: as §1, §2, §3, §4

A. baumannii ATCC19606 = assay: Checkerboard assay EtDip with colistin; type: cell-based, Acinetobacter baumannii; conditions: CAMB, + 150 mM NaCl, + 1.25 mM CaCl2; FICindex ≤0.5 = synergy
Experimental: as §1, §2, §3, §4

reference strains = assay: MIC, several reference strains; type: cell-based; conditions: reference strains of Table 2
Experimental: (§5) The strains that were used in this study (Table 2 and Table S1) were cultivated at 37 °C in cation-adjusted Mueller–Hinton broth (CAMB) in Erlenmeyer flasks, or on the same medium with agar in Petri dishes. Exceptionally, Mycobacterium smegmatis was cultivated at 37 °C in brain heart infusion (BHI) medium that was supplemented with 1% Tween-80 in Erlenmeyer flasks, or on the same medium lacking detergent but with agar in Petri dishes. Strains listed with Robert Koch Institute (RKI) strain numbers are clinical isolates from the RKI strain collection originating from hospitalized patients in Germany. The remaining strains originated from the Sanofi strain collection and they were originally purchased from the American Type Culture Collection or the German Collection of Microorganisms and Cell Cultures. Meropenem/colistin-resistant strains were maintained, as described above, with the appropriate antibiotic added at levels below the minimal inhibitory concentration (MIC).
(§6) The MIC values were determined in 384-well microtiter plates with an assay volume of 20 µL. […] The growth of M. smegmatis was measured using the BacTiter-Glo luminescence test system (Promega, Madison, WI, USA). The growth of the other species was determined by visual inspection of the microtiter plate and turbidimetry based on the optical density at 600 nm (OD600). […]

[1] = system: Acinetobacter pittii clinical isolate (1); assay: MIC, clinical isolates; type: cell-based; conditions: Table S1, RKI 588/16
Experimental: as §5
(§7) The MIC values were determined in 384-well microtiter plates with an assay volume of 20 µL. Immediately before each assay, the cultures of test organisms (bacteria grown for 18 h, Candida albicans and M. smegmatis grown for 48 h) were diluted with the appropriate medium to a density of 1 × 10^6 cells/mL (C. albicans), 1 × 10^5 cells/mL (M. smegmatis) or 5 × 10^5 cells per mL (other species). […] We transferred 2-µL aliquots from this dilution series to new 384-well microtiter plates while using a CyBio-Well 384-channel automated pipettor (Analytic Jena, Jena, Germany) and added 18 µL of the diluted suspension of each test species using a Viafill reagent dispenser (Integra), thus reducing the final peptide concentration 10-fold to the range 1024–0.03125 µg/mL. […] The growth of M. smegmatis was measured using the BacTiter-Glo luminescence test system (Promega, Madison, WI, USA). The growth of the other species was determined by visual inspection of the microtiter plate and turbidimetry based on the optical density at 600 nm (OD600). The MIC was defined as the peptide concentration at which no bacterial growth was observed. We supplemented the test medium with either 150 mM NaCl or 1.25 mM CaCl2 to represent monovalent and divalent cations to simulate physiological conditions.

[2] = system: Citrobacter freundii clinical isolate (1); assay: MIC, clinical isolates; type: cell-based; conditions: Table S1, RKI 604/16
Experimental: as §5, §7

[3] = system: Enterobacter aerogenes clinical isolate (1); assay: MIC, clinical isolates; type: cell-based; conditions: Klebsiella aerogenes; Table S1, RKI 1026/14-1
Experimental: as §5, §7

[4] = system: Escherichia coli clinical isolates (26); assay: MIC, clinical isolates; type: cell-based
Experimental: as §5, §7

[5] = system: Klebsiella oxytoca clinical isolates (2); assay: MIC, clinical isolates; type: cell-based; conditions: Table S1, RKI 609/16
Experimental: as §5, §7

[6] = system: Morganella morganii clinical isolates (4); assay: MIC, clinical isolates; type: cell-based
Experimental: as §5, §7

[7] = system: Salmonella enterica clinical isolates (10); assay: MIC, clinical isolates; type: cell-based
Experimental: as §5, §7

[8] = system: Stenotrophomonas maltophilia clinical isolates (2); assay: MIC, clinical isolates; type: cell-based; conditions: Table S1, RKI 729/15
Experimental: as §5, §7

[9] = system: Seratia fonticola clinical isolate (1); assay: MIC, clinical isolates; type: cell-based, Serratia fonticola; conditions: Table S1, RKI 517/16
Experimental: as §5, §6

QFNMQGGGSPRQGFDVNANARFPIWQSQNARNSVHGTASYAQHLGGPYGNSRPNFGGGLQFT [EtDip, diptericin-like peptide of Eristalis tenax]
interaction with colistin (FICindex) (E. coli ATCC25922): Synergistic interactions | interaction with colistin (FICindex) (P. aeruginosa ATCC 27853): Synergistic interactions | interaction with colistin (FICindex) (A. baumannii ATCC19606): Synergistic interactions | activity against the test strains (reference strains): no activity

C[C@@H](O)[C@H]1C(=O)N2C(C(=O)O)=C(S[C@@H]3CN[C@H](C(=O)N(C)C)C3)[C@H](C)[C@H]12 [MEM, meropenem]
MIC [1]: ≤ 0.5 µg/mL | MIC [2]: > 64 µg/mL | MIC [3]: 16 µg/mL (≈ 41.7 µM) | MIC ([4]; Table S1, RKI 75/15): > 64 µg/mL | MIC ([4]; Table S1, RKI 95/15): ≤ 0.5 µg/mL | MIC ([4]; Table S1, RKI 97/15): ≤ 0.5 µg/mL | MIC ([4]; Table S1, RKI 314/16): ≤ 0.5 µg/mL | MIC ([4]; Table S1, RKI 317/16): ≤ 0.5 µg/mL | MIC ([4]; Table S1, RKI 330/16): ≤ 0.5 µg/mL | MIC ([4]; Table S1, RKI 443/16): 4 µg/mL (≈ 10.4 µM) | MIC ([4]; Table S1, RKI 462/16): ≤ 0.5 µg/mL | MIC ([4]; Table S1, RKI 513/16): ≤ 0.5 µg/mL | MIC ([4]; Table S1, RKI 514/16): ≤ 0.5 µg/mL | MIC ([4]; Table S1, RKI 515/16): ≤ 0.5 µg/mL | MIC ([4]; Table S1, RKI 521/16): ≤ 0.5 µg/mL | MIC ([4]; Table S1, RKI 524/16): ≤ 0.5 µg/mL | MIC ([4]; Table S1, RKI 525/16): ≤ 0.5 µg/mL | MIC ([4]; Table S1, RKI 581/16): ≤ 0.5 µg/mL | MIC ([4]; Table S1, RKI 582/16): ≤ 0.5 µg/mL | MIC ([4]; Table S1, RKI 583/16): ≤ 0.5 µg/mL | MIC ([4]; Table S1, RKI 590/16): ≤ 0.5 µg/mL | MIC ([4]; Table S1, RKI 592/16): ≤ 0.5 µg/mL | MIC ([4]; Table S1, RKI 593/16): ≤ 0.5 µg/mL | MIC ([4]; Table S1, RKI 602/16): ≤ 0.5 µg/mL | MIC ([4]; Table S1, RKI 607/16): 8 µg/mL (≈ 20.9 µM) | MIC ([4]; Table S1, RKI 867/14): 8 µg/mL (≈ 20.9 µM) | MIC ([4]; Table S1, RKI 1023/14): ≤ 0.5 µg/mL | MIC [5]: 16 µg/mL (≈ 41.7 µM) | MIC ([6]; Table S1, RKI 81/15): ≤ 0.5 µg/mL | MIC ([6]; Table S1, RKI 93/15): ≤ 0.5 µg/mL | MIC ([6]; Table S1, RKI 599/16): > 64 µg/mL | MIC ([6]; Table S1, RKI 659/13): ≤ 0.5 µg/mL | MIC ([7]; Table S1, RKI 205/14): ≤ 0.5 µg/mL | MIC ([7]; Table S1, RKI 206/14): ≤ 0.5 µg/mL | MIC ([7]; Table S1, RKI 270/14): ≤ 0.5 µg/mL | MIC ([7]; Table S1, RKI 277/14): ≤ 0.5 µg/mL | MIC ([7]; Table S1, RKI 419/14): ≤ 0.5 µg/mL | MIC ([7]; Table S1, RKI 436/14): ≤ 0.5 µg/mL | MIC ([7]; Table S1, RKI 437/14): ≤ 0.5 µg/mL | MIC ([7]; Table S1, RKI 532/14-1): ≤ 0.5 µg/mL | MIC ([7]; Table S1, RKI 533/14): ≤ 0.5 µg/mL | MIC ([7]; Table S1, RKI 583/14): ≤ 0.5 µg/mL | MIC [8]: > 64 µg/mL | MIC [9]: 32 µg/mL (≈ 83.4 µM)
